Data as given in patent US20190263804A1, “AZABENZIMIDAZOLE DERIVATIVES AS PI3K BETA INHIBITORS” (Janssen Pharmaceutica NV, priority 2016, published 2019).

Assays:
PIK3Cα_h = target: T1, PIK3Cα_h (Homo sapiens, UniProt P42336); assay: KINOMEscan enzyme binding assay, PIK3Cα; conditions: KINOMEscan (DiscoveRx)
T1 construct: purchased DiscoveRx Corporation, San Diego (contract assay service)
Procedure: (§1) Enzyme Binding Assays (KINOMEscan®)
(§2) Kinase enzyme binding affinities of compounds disclosed herein were determined using the KINOMEscan technology performed by DiscoveRx Corporation, San Diego, Calif., USA (www.kinomescan.com). Table A reports the obtained Kd values (nM), with the Kd being the inhibitor binding constant (‘n.d.’ means not determined): […]

PIK3Cβ_h = target: T2, PIK3Cβ_h (Homo sapiens, UniProt P42338); assay: KINOMEscan enzyme binding assay, PIK3Cβ; conditions: KINOMEscan (DiscoveRx)
T2 construct: purchased DiscoveRx Corporation, San Diego (contract assay service)
T2 sequence (P42338 whole entry): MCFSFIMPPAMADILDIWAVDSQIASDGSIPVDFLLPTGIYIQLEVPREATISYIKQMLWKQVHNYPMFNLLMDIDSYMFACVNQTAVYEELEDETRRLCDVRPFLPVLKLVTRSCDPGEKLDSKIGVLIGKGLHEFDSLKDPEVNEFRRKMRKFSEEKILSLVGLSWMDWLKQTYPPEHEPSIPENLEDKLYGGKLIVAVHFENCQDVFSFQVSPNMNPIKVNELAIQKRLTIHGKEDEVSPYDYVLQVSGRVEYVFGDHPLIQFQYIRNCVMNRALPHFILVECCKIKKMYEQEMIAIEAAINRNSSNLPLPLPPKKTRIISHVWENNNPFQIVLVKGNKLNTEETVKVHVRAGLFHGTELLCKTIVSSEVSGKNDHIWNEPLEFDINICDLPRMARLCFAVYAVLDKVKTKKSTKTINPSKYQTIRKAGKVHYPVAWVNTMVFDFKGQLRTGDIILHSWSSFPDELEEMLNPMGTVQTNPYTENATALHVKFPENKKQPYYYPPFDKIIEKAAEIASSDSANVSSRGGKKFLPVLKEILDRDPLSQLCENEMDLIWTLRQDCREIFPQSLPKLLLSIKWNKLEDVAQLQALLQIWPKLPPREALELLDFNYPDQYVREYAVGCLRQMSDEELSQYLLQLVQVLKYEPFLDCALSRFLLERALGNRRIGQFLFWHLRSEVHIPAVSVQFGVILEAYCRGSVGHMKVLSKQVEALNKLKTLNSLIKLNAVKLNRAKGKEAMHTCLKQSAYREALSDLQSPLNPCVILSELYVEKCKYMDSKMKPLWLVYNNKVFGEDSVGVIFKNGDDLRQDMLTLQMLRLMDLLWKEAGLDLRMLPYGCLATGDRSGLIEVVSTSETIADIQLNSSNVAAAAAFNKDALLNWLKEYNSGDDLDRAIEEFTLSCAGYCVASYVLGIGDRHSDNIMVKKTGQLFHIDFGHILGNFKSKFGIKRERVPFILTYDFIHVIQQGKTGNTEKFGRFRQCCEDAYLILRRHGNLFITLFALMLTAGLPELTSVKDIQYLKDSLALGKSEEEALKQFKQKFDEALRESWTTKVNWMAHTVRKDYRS
Procedure: as §1, §2

PIK3Cδ_h = target: T3, PIK3Cδ_h (Homo sapiens, UniProt O00329); assay: KINOMEscan enzyme binding assay, PIK3Cδ; conditions: KINOMEscan (DiscoveRx)
T3 construct: purchased DiscoveRx Corporation, San Diego (contract assay service)
T3 sequence (O00329 1-1044): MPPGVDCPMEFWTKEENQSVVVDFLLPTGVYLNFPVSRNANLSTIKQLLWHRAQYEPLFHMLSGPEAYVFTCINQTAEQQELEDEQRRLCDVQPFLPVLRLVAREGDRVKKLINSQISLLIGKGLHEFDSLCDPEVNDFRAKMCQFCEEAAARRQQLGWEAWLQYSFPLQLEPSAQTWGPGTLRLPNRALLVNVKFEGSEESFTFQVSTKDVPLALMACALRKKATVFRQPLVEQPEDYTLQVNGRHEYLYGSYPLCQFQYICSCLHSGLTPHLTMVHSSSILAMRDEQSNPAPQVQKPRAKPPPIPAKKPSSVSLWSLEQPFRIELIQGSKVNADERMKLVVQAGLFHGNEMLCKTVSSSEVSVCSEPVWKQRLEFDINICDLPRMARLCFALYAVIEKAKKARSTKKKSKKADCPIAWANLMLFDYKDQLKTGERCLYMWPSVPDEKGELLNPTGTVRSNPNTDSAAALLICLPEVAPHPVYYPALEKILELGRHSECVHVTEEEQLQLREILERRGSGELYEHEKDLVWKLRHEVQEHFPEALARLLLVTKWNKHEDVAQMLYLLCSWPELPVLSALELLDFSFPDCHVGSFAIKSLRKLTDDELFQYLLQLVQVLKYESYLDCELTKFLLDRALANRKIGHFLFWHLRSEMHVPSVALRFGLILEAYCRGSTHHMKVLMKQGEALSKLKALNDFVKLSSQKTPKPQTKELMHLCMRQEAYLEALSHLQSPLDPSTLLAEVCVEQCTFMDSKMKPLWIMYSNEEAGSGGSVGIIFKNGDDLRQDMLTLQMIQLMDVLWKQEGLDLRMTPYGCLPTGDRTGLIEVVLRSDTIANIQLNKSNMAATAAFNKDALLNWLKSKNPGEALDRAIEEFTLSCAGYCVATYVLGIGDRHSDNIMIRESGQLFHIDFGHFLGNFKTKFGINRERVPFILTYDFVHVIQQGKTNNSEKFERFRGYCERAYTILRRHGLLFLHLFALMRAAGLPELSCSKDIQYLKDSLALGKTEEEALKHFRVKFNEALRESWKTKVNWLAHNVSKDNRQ
Procedure: as §1, §2

PIK3Cγ_h = target: T4, PIK3Cγ_h (Homo sapiens, UniProt P48736); assay: KINOMEscan enzyme binding assay, PIK3Cγ; conditions: KINOMEscan (DiscoveRx)
T4 construct: purchased DiscoveRx Corporation, San Diego (contract assay service)
T4 sequence (P48736 whole entry): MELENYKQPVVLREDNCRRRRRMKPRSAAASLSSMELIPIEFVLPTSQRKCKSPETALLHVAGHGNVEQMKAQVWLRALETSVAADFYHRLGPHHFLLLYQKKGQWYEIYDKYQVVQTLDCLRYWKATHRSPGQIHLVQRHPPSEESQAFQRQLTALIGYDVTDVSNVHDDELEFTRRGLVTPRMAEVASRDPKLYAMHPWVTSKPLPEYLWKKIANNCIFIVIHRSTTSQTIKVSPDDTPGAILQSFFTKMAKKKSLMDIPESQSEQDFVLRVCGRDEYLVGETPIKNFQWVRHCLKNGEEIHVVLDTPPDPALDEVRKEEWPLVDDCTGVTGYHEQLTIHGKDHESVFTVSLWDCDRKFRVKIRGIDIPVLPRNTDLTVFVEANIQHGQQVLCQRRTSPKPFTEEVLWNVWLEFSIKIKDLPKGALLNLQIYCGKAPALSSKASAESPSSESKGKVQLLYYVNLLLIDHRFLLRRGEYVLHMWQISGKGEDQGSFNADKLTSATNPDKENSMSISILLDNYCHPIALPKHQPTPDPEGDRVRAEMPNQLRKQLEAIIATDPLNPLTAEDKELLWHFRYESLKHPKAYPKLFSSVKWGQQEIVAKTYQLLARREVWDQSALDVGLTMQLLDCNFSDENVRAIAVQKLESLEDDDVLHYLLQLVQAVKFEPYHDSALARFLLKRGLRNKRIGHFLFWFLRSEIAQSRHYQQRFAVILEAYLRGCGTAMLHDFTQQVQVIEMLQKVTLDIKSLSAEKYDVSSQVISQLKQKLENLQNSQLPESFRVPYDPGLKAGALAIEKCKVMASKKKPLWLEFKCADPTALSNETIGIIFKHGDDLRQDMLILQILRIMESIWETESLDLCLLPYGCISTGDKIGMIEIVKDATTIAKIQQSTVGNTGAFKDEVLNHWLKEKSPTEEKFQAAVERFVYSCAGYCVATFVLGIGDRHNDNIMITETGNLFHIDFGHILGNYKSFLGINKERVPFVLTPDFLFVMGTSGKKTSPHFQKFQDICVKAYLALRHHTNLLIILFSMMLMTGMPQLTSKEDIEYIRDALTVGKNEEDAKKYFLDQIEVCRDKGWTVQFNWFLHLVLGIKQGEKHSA
Procedure: as §1, §2

MTOR_h = target: T5, MTOR_h (Homo sapiens, UniProt P42345); assay: KINOMEscan enzyme binding assay, MTOR; conditions: KINOMEscan (DiscoveRx)
T5 construct: purchased DiscoveRx Corporation, San Diego (contract assay service)
Procedure: as §1, §2

[1] = tested on: phosphorylation of Akt (Ser473) in PC-3 cells; assay: Cellular assay: phospho-Akt (Ser473) MSD ELISA in PC-3 cells; format: cell-based; conditions: Homo sapiens, 1 h, 60 min compound incubation, read-out: IC50 pAkt_S473
Procedure: (§3) Cellular activity of PI3K(3 inhibitors was determined by quantifying the phosphorylation of Akt in PC-3 cells. Akt phosphorylated at Ser473 and Thr308 were measured using an enzyme-linked immunosorbent assay (ELISA; Meso Scale Discovery (MSD), Gaithersburg, Md.) and specific primary antibodies from MSD.
(§4) On day 1, PC3 cells (ATCC # […]) were seeded into PerkinElmer MW96 plates at 25.000 cells per well, in 75 μl complete culture medium (DMEM high glucose, AQmedia™, D0819, Sigma-Aldrich) containing 10% heat inactivated FCS and incubated at 37° C., 5% CO2 during 24 hours. On day 2, compound or DMSO (0.3%) was added and cells were further incubated for 60 min at 37° C., 5% CO2 in a total volume of 100 μl of medium.
(§5) The phosphoprotein assay was executed according to vendor instructions in the Phospho-Akt (Ser473) Assay Whole Cell Lysate Kit (MSD # K15100D-3) and the Phospho-Akt (Thr308) Assay Whole Cell Lysate Kit (MSD # K151DYD-3) using the lysis, blocking and wash buffer provided.
(§6) Briefly, at the end of the cell treatment period, media were removed by aspiration and adherent cells were lysed in 50 μl ice-cold lysis buffer. MSD plates are supplied pre-coated with capture antibodies for Phospho-Akt (Ser473 and Thr308). After blocking, lysates from tissue culture plates were added and plates were washed. Then, a solution containing the detection antibody (anti-total Akt conjugated with an electrochemiluminescent compound-MSD Sulfo-tag label) was added. The signals were detected using an MSD SECTOR Imager 6000 and are proportional to the phospho-Akt titres.
(§7) Data were processed. The percentage of inhibition was plotted against the log concentration of test compounds, and the sigmoidal log concentration-effect curve of best fit was calculated by nonlinear regression analysis. From these concentration-response curves, the IC50 values were calculated. Five concentrations were used for curve fitting.

[2] = tested on: phosphorylation of Akt (Thr308) in PC-3 cells; assay: Cellular assay: phospho-Akt (Thr308) MSD ELISA in PC-3 cells; format: cell-based; conditions: Homo sapiens, 1 h, 60 min compound incubation, read-out: IC50 pAkt_Thr308
Procedure: as §3, §4, §5, §6, §7

T1 sequence (P42336 whole entry): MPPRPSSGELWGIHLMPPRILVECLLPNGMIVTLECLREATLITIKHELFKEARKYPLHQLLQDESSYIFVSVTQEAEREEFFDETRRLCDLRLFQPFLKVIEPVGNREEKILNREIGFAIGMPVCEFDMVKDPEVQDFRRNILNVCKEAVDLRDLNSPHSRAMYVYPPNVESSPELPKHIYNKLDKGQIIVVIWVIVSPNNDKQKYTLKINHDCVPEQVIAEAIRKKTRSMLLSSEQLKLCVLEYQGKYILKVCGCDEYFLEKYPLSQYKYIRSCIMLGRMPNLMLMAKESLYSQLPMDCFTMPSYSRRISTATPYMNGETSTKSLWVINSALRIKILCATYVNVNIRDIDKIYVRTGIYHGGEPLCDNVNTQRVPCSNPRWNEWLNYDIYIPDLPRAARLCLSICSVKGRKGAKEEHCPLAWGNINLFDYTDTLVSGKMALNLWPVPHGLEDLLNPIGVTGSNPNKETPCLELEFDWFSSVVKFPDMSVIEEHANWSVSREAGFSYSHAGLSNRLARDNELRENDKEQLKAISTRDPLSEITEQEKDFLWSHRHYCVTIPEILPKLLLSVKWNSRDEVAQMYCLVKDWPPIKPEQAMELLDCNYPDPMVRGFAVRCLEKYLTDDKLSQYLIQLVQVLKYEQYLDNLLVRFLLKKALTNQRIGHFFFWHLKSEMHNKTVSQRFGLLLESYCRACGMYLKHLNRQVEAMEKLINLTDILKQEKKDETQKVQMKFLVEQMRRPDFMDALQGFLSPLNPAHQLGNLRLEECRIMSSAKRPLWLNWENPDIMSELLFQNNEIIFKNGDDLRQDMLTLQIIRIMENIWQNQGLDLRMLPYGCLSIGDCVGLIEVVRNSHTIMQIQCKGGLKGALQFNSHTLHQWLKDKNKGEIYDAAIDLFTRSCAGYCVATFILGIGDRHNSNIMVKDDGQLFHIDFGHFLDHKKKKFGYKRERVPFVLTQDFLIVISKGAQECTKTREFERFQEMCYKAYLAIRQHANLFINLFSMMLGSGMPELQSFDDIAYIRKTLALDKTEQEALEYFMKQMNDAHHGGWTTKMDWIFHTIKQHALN

| Kd (PIK3Cα_h) | Kd (PIK3Cβ_h) | Kd (PIK3Cδ_h) | Kd (PIK3Cγ_h) | Kd (MTOR_h) | IC50 [1] | IC50 [2] | Structure (SMILES) |
| --- | --- | --- | --- | --- | --- | --- | --- |
| 2.1 µM | 0.002 µM | 0.6 µM | 9.5 µM | ≥ 30.2 µM | 0.04 µM | 0.03 µM | Cc1c(Cl)cccc1Cn1c(C)nc2cnc(N3CCOCC3)cc21 [Compound 1] |
| 17 µM | 0.009 µM | 4.3 µM | > 30.2 µM | > 30.2 µM | ~0.14 µM | 0.15 µM | Cc1c(Cn2c(C)nc3c(N)nc(C4=CCOCC4)cc32)cccc1C(F)(F)F [Compound 4] |
| 8.7 µM | 0.027 µM | 1.3 µM | 32.4 µM | > 30.2 µM | > 0.51 µM | > 0.51 µM | Cc1nc2cnc(N3CCOCC3)cc2n1Cc1cccc2c1CN(CCO)CC2 [Compound 11] |
| > 30.2 µM | 0.079 µM | 5.1 µM | > 30.2 µM | > 30.2 µM | ~0.48 µM | ~0.46 µM | Cc1nc2cnc(N3CCOCC3)cc2n1Cc1cccc2c1CNCC2 [Compound 9] |
| 2.2 µM | 0.003 µM | 1.1 µM | > 30.2 µM | 4.6 µM | 0.48 µM | 0.39 µM | Cc1c(Cn2c(CN3CC(O)C3)nc3cnc(N4CCOCC4)cc32)cccc1C(F)(F)F [Compound 7] |
| 3.7 µM | 0.002 µM | 1.5 µM | 22.4 µM | > 30.2 µM | 0.18 µM | 0.43 µM | Cc1c(Cn2c(C)nc3cnc(N4CCOCC4)cc32)cccc1C(F)(F)F [Compound 2] |
| 13.2 µM | 0.003 µM | 0.7 µM | > 30.2 µM | > 30.2 µM | 0.31 µM | 0.11 µM | Cc1cccc(Cn2c(C)nc3c(N)nc(C4=CCOCC4)cc32)c1C [Compound 12] |
| 5.9 µM | 0.003 µM | 1.3 µM | 17 µM | > 30.2 µM | 0.17 µM | 0.08 µM | Cc1c(Cn2c(C)nc3cnc(C4=CCOCC4)cc32)cccc1C(F)(F)F [Compound 13] |
| 18.2 µM | 0.398 µM | 6.3 µM | > 30.2 µM | > 30.2 µM | 0.12 µM | 0.09 µM | Cc1c(Cn2c(C)nc3c(N)nc(N4CCOCC4)cc32)cccc1C(F)(F)F [Compound 15] |
| 2.6 µM | 0.004 µM | 1.5 µM | > 30.2 µM | > 30.2 µM | ~0.1 µM | 0.13 µM | Cc1c(Cl)cccc1Cn1c(CN2CCS(=O)(=O)CC2)nc2cnc(N3CCOCC3)cc21 [Compound 5] |
| 11 µM | 0.011 µM | 2.6 µM | > 30.2 µM | > 30.2 µM |  | 0.29 µM | Cc1c(Cn2c(CN3CCS(=O)(=O)CC3)nc3cnc(N4CCOCC4)cc32)cccc1C(F)(F)F [Compound 8] |
| > 30.2 µM | 0.132 µM | 5.6 µM | > 30.2 µM | > 30.2 µM | 0.41 µM | 0.18 µM | Cc1c(F)cccc1Cn1c(C)nc2c(N)nc(N3CCOCC3)cc21 [Compound 16] |
| 26.9 µM | 0.1 µM | 4.2 µM | > 30.2 µM | > 30.2 µM | > 0.51 µM | > 0.51 µM | Cc1nc2cnc(N3CCOCC3)cc2n1Cc1cccc2c1CN(C)CC2 [Compound 10] |
| 2.8 µM | 0.001 µM | 0.8 µM | 18.2 µM | ≥ 30.2 µM | 0.05 µM | 0.04 µM | Cc1c(Cn2c(CO)nc3cnc(N4CCOCC4)cc32)cccc1C(F)(F)F [Compound 6] |
| 1.6 µM | 0.001 µM | 0.2 µM | > 30.2 µM | > 30.2 µM | 0.07 µM | 0.04 µM | Cc1c(Cn2c(CN3CC4(CC(O)C4)C3)nc3cnc(N4CCOCC4)cc32)cccc1C(F)(F)F [Compound 3] |
| > 30.2 µM | 0.011 µM | 3.3 µM | 21.9 µM | > 30.2 µM | 0.32 µM | 0.22 µM | Cc1c(F)cccc1Cn1c(C)nc2c(N)nc(C3=CCOCC3)cc21 [Compound 14] |
| 8.3 µM | 0.019 µM | 1.5 µM | > 30.2 µM | > 30.2 µM | ~0.23 µM | 0.19 µM | Cc1cccc(Cn2c(C)nc3c(N)nc(N4CCOCC4)cc32)c1C [Compound 17] |
